US10538555B2, “Macrocyclic inhibitors of the PD-1/PD-L1 and CD80(B7-1)/PD-L1 protein/protein interactions” (BRISTOL-MYERS SQUIBB COMPANY, priority 2014, dated 2020)
pIC50: −log10 of the molar value. Like-named read-outs stand apart in the source and are kept apart here. Where a SMILES comes first, the peptide text is derived from it. Bridges are numbered along the chain shown (N, C = ends). [ ]: non-standard residue; d: D form. Morpholine(3S-CO) = O=C(O)[C@@H]1COCCN1; Bta = N[C@@H](Cc1csc2ccccc12)C(=O)O; Hyp = O=C(O)[C@@H]1C[C@@H](O)CN1; NMeNle = CCCC[C@H](NC)C(=O)O; Pip = O=C(O)[C@@H]1CCCCN1; Dab = NCC[C@H](N)C(=O)O; Dap = NC[C@H](N)C(=O)O

Molecular target: T1, Human PD-L1/PD-1 (Homo sapiens, UniProt Q9NZQ7)
T1 construct: TVMV protease cleavage site (C); made in house; host or cells: HEK293T cells
T1 sequence (Q9NZQ7 with tags, fused parts or gaps): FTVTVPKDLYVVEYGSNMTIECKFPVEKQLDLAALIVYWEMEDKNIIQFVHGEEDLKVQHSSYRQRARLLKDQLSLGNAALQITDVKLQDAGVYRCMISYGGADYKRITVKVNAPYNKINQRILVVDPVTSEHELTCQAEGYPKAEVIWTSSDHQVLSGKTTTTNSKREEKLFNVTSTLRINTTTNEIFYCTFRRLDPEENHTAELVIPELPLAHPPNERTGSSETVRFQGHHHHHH
Assay: HTRF Human PD-L1/PD-1 binding assay (PD-1-Ig/PD-L1-His)
Details: PD-L1-His 10 nM, PD-1-Ig 20 nM
Method in brief: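 Compound preincubated 15 min with PD-L1-His (10 nM final), then PD-1-Ig (20 nM final) added for 15 min in dPBS with 0.1% BSA and 0.05% Tween-20. Detection by Eu-cryptate anti-Ig (1 nM) and APC anti-His (20 nM) after 30 min; 665/620 nm HTRF ratio. Proteins expressed in HEK293T.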

[1] = class symbol, read-out: HTRF Human PD-L1/PD-1 Binding Assay IC50 Range

Structure (SMILES) | pIC50 [1] | pIC50 (read-out: HTRF Human PD-L1/PD-1 Binding Assay IC50)
CCCC[C@H]1C(=O)N(C)[C@@H](CCCC)C(=O)N[C@@H](C)C(=O)N[C@H](C(=O)NCC(N)=O)CSCC(=O)N[C@@H](Cc2ccc(O)cc2)C(=O)N2CCCC[C@H]2C(=O)N[C@@H](CC(=O)O)C(=O)N2CCC[C@H]2C(=O)N[C@@H](Cc2cnc[nH]2)C(=O)N[C@@H](CCC(N)=O)C(=O)N2C[C@H](O)C[C@H]2C(=O)N[C@@H](Cc2c[nH]c3ccccc23)C(=O)N[C@@H](CO)C(=O)N[C@@H](Cc2csc3ccccc23)C(=O)N1C [Example 1509] ({CH2CO}-Y[Pip]DPHQ[Hyp]WS[Bta][NMeNle][NMeNle]ACG-NH2; thioether N-14) | 7.00 to 8.00 | –
CCCC[C@H]1C(=O)N(C)[C@@H](CCCC)C(=O)N[C@@H](C)C(=O)N[C@H](C(=O)NCC(N)=O)CSCC(=O)N[C@@H](Cc2ccc(O)cc2)C(=O)N2CCCC[C@H]2C(=O)N[C@@H](CC(=O)O)C(=O)N2CCC[C@H]2C(=O)N[C@@H](CN)C(=O)N[C@@H](CCC(=O)O)C(=O)N2C[C@H](O)C[C@H]2C(=O)N[C@@H](Cc2c[nH]c3ccccc23)C(=O)N[C@@H](CO)C(=O)N[C@@H](Cc2csc3ccccc23)C(=O)N1C [Example 1510] ({CH2CO}-Y[Pip]DP[Dap]E[Hyp]WS[Bta][NMeNle][NMeNle]ACG-NH2; thioether N-14) | 8.00 to 9.00 | –
CCCC[C@H]1C(=O)N(C)[C@@H](CCCC)C(=O)N[C@@H](CC(C)C)C(=O)N[C@H](C(=O)NCC(N)=O)CSCC(=O)N[C@@H](Cc2ccc(O)cc2)C(=O)N2CCCC[C@H]2C(=O)N[C@@H](CC(=O)O)C(=O)N2CCC[C@H]2C(=O)N[C@@H](Cc2cnc[nH]2)C(=O)N[C@@H](CCC(N)=O)C(=O)N2C[C@H](O)C[C@H]2C(=O)N[C@@H](Cc2c[nH]c3ccccc23)C(=O)N[C@@H](CO)C(=O)N[C@@H](Cc2csc3ccccc23)C(=O)N1C [Example 1511] ({CH2CO}-Y[Pip]DPHQ[Hyp]WS[Bta][NMeNle][NMeNle]LCG-NH2; thioether N-14) | 8.00 to 9.00 | –
CCCC[C@H]1C(=O)N(C)[C@@H](CCCC)C(=O)N[C@@H](CCC(=O)O)C(=O)N[C@H](C(=O)NCC(N)=O)CSCC(=O)N[C@@H](Cc2ccc(O)cc2)C(=O)N2CCCC[C@H]2C(=O)N[C@@H](CC(=O)O)C(=O)N2CCC[C@H]2C(=O)N[C@@H](Cc2cnc[nH]2)C(=O)N[C@@H](CCC(=O)O)C(=O)N2C[C@H](O)C[C@H]2C(=O)N[C@@H](Cc2c[nH]c3ccccc23)C(=O)N[C@@H](CO)C(=O)N[C@@H](Cc2csc3ccccc23)C(=O)N1C [Example 1512] ({CH2CO}-Y[Pip]DPHE[Hyp]WS[Bta][NMeNle][NMeNle]ECG-NH2; thioether N-14) | 7.00 to 8.00 | –
CCCC[C@H]1C(=O)N(C)[C@@H](CCCC)C(=O)N[C@@H](CCC(=O)O)C(=O)N[C@H](C(=O)NCC(N)=O)CSCC(=O)N[C@@H](Cc2ccc(O)cc2)C(=O)N2CCCC[C@H]2C(=O)N[C@@H](CC(=O)O)C(=O)N2CCC[C@H]2C(=O)N[C@@H](Cc2cnc[nH]2)C(=O)N[C@@H](CCC(N)=O)C(=O)N2C[C@H](O)C[C@H]2C(=O)N[C@@H](Cc2c[nH]c3ccccc23)C(=O)N[C@@H](CO)C(=O)N[C@@H](Cc2csc3ccccc23)C(=O)N1C [Example 1513] ({CH2CO}-Y[Pip]DPHQ[Hyp]WS[Bta][NMeNle][NMeNle]ECG-NH2; thioether N-14) | – | 8.28
CCCC[C@H]1C(=O)N(C)[C@@H](CCCC)C(=O)N[C@@H](C)C(=O)N[C@H](C(=O)NCC(N)=O)CSCC(=O)N[C@@H](Cc2ccc(O)cc2)C(=O)N2CCOC[C@H]2C(=O)N[C@@H](CC(=O)O)C(=O)N2CCC[C@H]2C(=O)N[C@@H](Cc2cnc[nH]2)C(=O)N[C@@H](CCC(N)=O)C(=O)N2C[C@H](O)C[C@H]2C(=O)N[C@@H](Cc2c[nH]c3ccccc23)C(=O)N[C@@H](CO)C(=O)N[C@@H](Cc2c[nH]c3ccccc23)C(=O)N1C [Example 1514] ({CH2CO}-Y[Morpholine(3S-CO)]DPHQ[Hyp]WSW[NMeNle][NMeNle]ACG-NH2; thioether N-14) | 8.00 to 9.00 | –
CCCC[C@H]1C(=O)N(C)[C@@H](CCCC)C(=O)N[C@@H](CCC(=O)O)C(=O)N[C@H](C(=O)NCC(N)=O)CSCC(=O)N[C@@H](Cc2ccc(O)cc2)C(=O)N2CCOC[C@H]2C(=O)N[C@@H](CC(=O)O)C(=O)N2CCC[C@H]2C(=O)N[C@@H](Cc2c[nH]cn2)C(=O)N[C@@H](CCC(N)=O)C(=O)N2C[C@H](O)C[C@H]2C(=O)N[C@@H](Cc2c[nH]c3ccccc23)C(=O)N[C@@H](CO)C(=O)N[C@@H](Cc2c[nH]c3ccccc23)C(=O)N1C [Example 1515] ({CH2CO}-Y[Morpholine(3S-CO)]DPHQ[Hyp]WSW[NMeNle][NMeNle]ECG-NH2; thioether N-14) | 8.00 to 9.00 | –
CCCC[C@H]1C(=O)N(C)[C@@H](CCCC)C(=O)N[C@@H](CN)C(=O)N[C@H](C(=O)NCC(N)=O)CSCC(=O)N[C@@H](Cc2ccc(O)cc2)C(=O)N2CCCC[C@H]2C(=O)N[C@@H](CC(N)=O)C(=O)N2CCC[C@H]2C(=O)N[C@@H](CN)C(=O)N[C@@H](CCC(=O)O)C(=O)N2C[C@H](O)C[C@H]2C(=O)N[C@@H](Cc2c[nH]c3ccccc23)C(=O)N[C@@H](CCN)C(=O)N[C@@H](Cc2c[nH]c3ccccc23)C(=O)N1C [Example 1519] ({CH2CO}-Y[Pip]NP[Dap]E[Hyp]W[Dab]W[NMeNle][NMeNle][Dap]CG-NH2; thioether N-14) | 8.00 to 9.00 | –
CCCC[C@H]1C(=O)N(C)[C@@H](CCCC)C(=O)N[C@@H](CCC(=O)O)C(=O)N[C@H](C(=O)NCC(N)=O)CSCC(=O)N[C@@H](Cc2ccc(O)cc2)C(=O)N2CCOC[C@H]2C(=O)N[C@@H](CC(=O)O)C(=O)N2CCC[C@H]2C(=O)N[C@@H](CN)C(=O)N[C@@H](CCC(=O)O)C(=O)N2C[C@H](O)C[C@H]2C(=O)N[C@@H](Cc2c[nH]c3ccccc23)C(=O)N[C@@H](CO)C(=O)N[C@@H](Cc2c[nH]c3ccccc23)C(=O)N1C [Example 1520] ({CH2CO}-Y[Morpholine(3S-CO)]DP[Dap]E[Hyp]WSW[NMeNle][NMeNle]ECG-NH2; thioether N-14) | 8.00 to 9.00 | –
CCCC[C@H]1C(=O)N(C)[C@@H](CCCC)C(=O)N[C@@H](CCC(=O)O)C(=O)N[C@H](C(=O)NCC(N)=O)CSCC(=O)N[C@@H](Cc2ccc(O)cc2)C(=O)N2CCCC[C@H]2C(=O)N[C@@H](CC(=O)O)C(=O)N2CCC[C@H]2C(=O)N[C@@H](CN)C(=O)N[C@@H](CCC(=O)O)C(=O)N2C[C@H](O)C[C@H]2C(=O)N[C@@H](Cc2c[nH]c3ccccc23)C(=O)N[C@@H](CO)C(=O)N[C@@H](Cc2c[nH]c3ccccc23)C(=O)N1C [Example 1521] ({CH2CO}-Y[Pip]DP[Dap]E[Hyp]WSW[NMeNle][NMeNle]ECG-NH2; thioether N-14) | 8.00 to 9.00 | –
CCCC[C@H]1C(=O)N(C)[C@@H](CCCC)C(=O)N[C@@H](C)C(=O)N[C@H](C(=O)NCC(N)=O)CSCC(=O)N[C@@H](Cc2ccc(O)cc2)C(=O)N2CCOC[C@H]2C(=O)N[C@@H](CC(=O)O)C(=O)N2CCC[C@H]2C(=O)N[C@@H](CN)C(=O)N[C@@H](CC(C)C)C(=O)N2C[C@H](O)C[C@H]2C(=O)N[C@@H](Cc2c[nH]c3ccccc23)C(=O)N[C@@H](CO)C(=O)N[C@@H](Cc2c[nH]c3ccccc23)C(=O)N1C [Example 1522] ({CH2CO}-Y[Morpholine(3S-CO)]DP[Dap]L[Hyp]WSW[NMeNle][NMeNle]ACG-NH2; thioether N-14) | 7.00 to 8.00 | –
